This note sets out measurements from EP0062018A1, “Novel phenyl-piperidines” (priority 1981, dated 1982).

Structures can show the parent of a compound that is named as a salt. Where two headings read alike, the source gives them in different places.

One assay has as its system rabbit right atria. Description: Chronotropic effect (heart frequency) in isolated spontaneously beating right atria. To be noted: for Emax / EC50: Oryctolagus cuniculus, rabbit right atria, heart rate; for Emax: read-out: HR ISA; for EC50: cumulative concentrations, Krebs-buffer pH 7.4, 32°C, read-out: HR EC50; for positive chronotropic effect: result in words, isolated rabbit right atria. It counts as cell-based. The method, then: (§1) Pharmacological studies on cardiac effects on heart frequency and contractility in isolated right atria and papillary muscle from rabbit. Rabbits with an average weight of 2.5 kg were killed by a blow and the hearts were rapidly removed. The right atria and a papillary muscle from the right ventricle were isolated and set up to contract isometrically in an organ bath. The bath contained 50 ml Krebs-buffer (pH 7.4) and the temperature was kept at 32°C. The contractions were measured by means of a force displacement transducer (Grass Model FT03) coupled to a Grass Model 7 Polygraph with a […] (Grass Model 7PIF). The spontaneously beating right atria was stretched to a resting tension high enough to measure the contractions and to trigger a tachograph for registration of the frequency. The papillary muscle was stretched to the length at which maximal tension was developed and was driven at a frequency of 1 Hz by a current 20 per cent above treshold and with a duration of 5 msec. After 60 min. equilibration, dose response curves to cumulative concentrations of isoprenaline were constructed for chronotropic effect, i.e. increase in frequency (atria) and positive inotropic effect, i.e. increase in contractility (papillary muscle). After wash-out similar curves were constructed for the compounds according to the invention. The positive inotropic agent dopamine was included for comparison. In order to establish the maximal chronotropic and inotropic responses of the preparations, isoprenaline was added immediately after the maximal concentrations of the compounds. The maximal effects of the compounds compared with the maximal effect of isoprenaline are expressed as intrinsic activity (ISA).

The test system of assay [1] is rabbit right ventricle papillary muscle. Description: Positive inotropic effect (contractility) in isolated electrically driven papillary muscle. It is filed as cell-based. Conditions: Oryctolagus cuniculus; for Emax: papillary muscle, read-out: Tmax ISA; for EC50: rabbit right ventricle papillary muscle, read-out: Tmax EC50. The protocol:
as §1

Setting [2] is: intrinsic activity: maximal effect compared with maximal effect of isoprenaline.
Setting [3] is: driven at 1 Hz, Krebs-buffer pH 7.4, 32°C.
Where [4] appears, read: Tested after β-blockade, intrinsic activity vs isoprenaline.

Take `NCCc1ccc(O)c(O)c1` [Dopamine, reference compound]: the Emax in the assay on rabbit right atria (setting [2]) worked out at 91%; in assay [1] (setting [2]), 78%. For the same molecule, the EC50 – broadly, the concentration that produces a half-maximal response – was determined as 14.2 µM with rabbit right atria and 19.7 µM in assay [1] (setting [3]). In addition, the positive chronotropic effect result in the assay on rabbit right atria was “marked positive chronotropic effect in doses which caused positive inotropy”.

As for `CCCN1CCCC(c2cc(O)cc(O)c2)C1` (centres unmarked) [Example 1, 3=(3,5=Dihydroxyehenyl)N-n-eroeyleiperidine hydrobromide], the Emax is 0% in the assay with rabbit right atria (setting [2]) and 30% in assay [1] (setting [2]). The positive chronotropic effect entry in the assay on rabbit right atria was “no positive chronotropic effect”. Moreover, in assay [1] (setting [3]), the half-maximal effective concentration (EC50) is 107 µM.

As for `CCN1CCCC(c2cc(O)cc(O)c2)C1` (centres unmarked) [Example 2, 3-(3,5-Dihydroxyehenyl)-N-ethylpiperidine hydrobromide], the values for the Emax (with rabbit right atria (setting [2]); in assay [1] (setting [2])) were 0% and 32%, respectively. For the same molecule, the EC50 in assay [1] (setting [3]) was 298 µM.

Regarding `CN1CCCC(c2cc(O)cc(O)c2)C1` (centres unmarked) [Example 3, 3-(3,5-Dihydroxyphenl)-N-methlpiperidine], the values for the Emax (in the assay with rabbit right atria (setting [2]); in assay [1] (setting [2])) were 0% and 37%, respectively. Also, the concentration giving a half-maximal response (EC50) in assay [1] (setting [3]) was found to be 11 µM.

For the molecule `CCCCN1CCCC(c2cc(O)cc(O)c2)C1` (centres unmarked) [Example 5], the Emax is 0% in the assay with rabbit right atria (setting [4]) and 42% in assay [1] (setting [4]). Moreover, in assay [1] (Tested after β-blockade), the half-maximal effective concentration (EC50) came out at 18.4 µM.

In the case of `CCCCCN1CCCC(c2cc(O)cc(O)c2)C1` (centres unmarked) [Example 6], the Emax came to 0% in the assay on rabbit right atria (setting [2]) and 43% in assay [1] (setting [2]). Also, in assay [1] (setting [3]), the 50% effective concentration (EC50) came out at 0.24 µM.

For `CC(C)N1CCCC(c2cc(O)cc(O)c2)C1` (centres unmarked) [Example 7], the Emax was 0% in the assay with rabbit right atria (setting [4]) and 26% in assay [1] (setting [4]). The EC50 in assay [1] (Tested after β-blockade) is 43 µM.

For `CC(C)NCC(O)c1ccc(O)c(O)c1` (centres unmarked) [Isoprenaline, reference compound], the Emax (with rabbit right atria (setting [2]); in assay [1] (setting [2])) was 100% each time. Further, the figures for the EC50 (in the assay on rabbit right atria; in assay [1] (setting [3])) were 0.003 µM and 0.01 µM, respectively. Further, the positive chronotropic effect entry with rabbit right atria was “marked positive chronotropy in doses significantly lower than those producing positive inotropy”.
